The text below walks through data of patent publication US20230372318A1, “METHODS FOR TREATING A SUBJECT HAVING MULTIPLE SYSTEM ATROPHY” (Theravance Biopharma R&D IP, LLC, priority 2022, published 2023).

In one assay the target is T1, NET (Rattus norvegicus, UniProt Q63380).
T1 construct: from tissue; host or cells: lumbar spinal cord of orally dosed male Sprague Dawley rats
Nature of the assay: Ex vivo transporter occupancy in rat spinal cord (NET). Here is the method:
Adult male Sprague Dawley rats (Charles River) were housed under controlled laboratory conditions (temperature at 21±1° C.) on a 12:12 hour light-dark cycle. Animals were given free access to food and water upon arrival to the facility and animals were acclimatized to their holding room for at least 48 hours. Animals were fasted but allowed free access to water for 15-18 hours prior to dosing.
Rats (n=6/timepoint/dose level) received a single oral dose of 4-[2-(2,4,6-trifluorophenoxymethyl)phenyl]piperidine (0.3, 1, 5, 10, 30, and 60 mg/kg) and were euthanized by decapitation at specified time points (0.5, 2, 4, 6, and 8 hr for 5 mg/kg dose level; 2 hr for 0.3, 1, 10, 30, and 60 mg/kg dose levels) post-administration. Spinal cords were dissected for ex vivo transporter occupancy and PK assessments from the same animals. The spinal cord was harvested by hydraulic extrusion using phosphate-buffered saline, and the lumbar segment dissected and frozen on dry ice. The remaining spinal cord segments were collected and homogenized in water (25% w/w) for PK analysis. All samples were stored at −80° C. until analysis.
A kinetic radioligand binding assay was used to determine NET and SERT occupancy in rat spinal cord, as described previously in Bourdet et al., J. Pharm. Exp. Ther. (2012) 341:137-145. PK/PD parameters were estimated by a compartmental modeling approach (WinNonlin Version 5.0.1, Pharsight Corporation). One- and two-compartment PK models with first-order absorption and elimination were evaluated. The one-compartment model was selected. The pharmacodynamics model was an effect compartment Emax model linked directly to the central PK compartment (WinNonlin PK Model 3, PD Model 101). Selection of models was based upon best fit in terms of visual inspection, Akaike Information Criteria, and weighted residual sum of squares using the Gauss-Newton minimization method.

The subject of another assay is norepinephrine (NE). Description: Plasma norepinephrine levels in Examples 6 and 7. The class given is in vivo, human. To be noted: for NE at End of Ex. 6/Start of Ex. 7: 4 weeks; for NE at End of Ex. 6/Start of Ex. 7 / NE on Day 29 of Ex. 7 Open Label: mean ± SD. As to the method: For pharmacodynamic assessments, blood samples for pharmacodynamic markers (including [dihydroxyphenylglycol] DHPG and NE) were collected after the subject had been seated for approximately 30 minutes.
Blood samples for pharmacodynamic markers ([dihydroxyphenylglycol] DHPG and NE) were collected at select study visits as defined in the Schedule of Study Procedures after the subject had been seated for 30 minutes. This was applicable to all consenting subjects.
Moreover, it has also been discovered that the supine norepinephrine level in a subject having multiple system atrophy continues to increase for at least about 8 weeks when the subject is treated daily with ampreloxetine as shown in Table 8:
Before treatment with ampreloxetine, supine norepinephrine (NE) levels in subjects with MSA are less than about 350 pg/mL. After about 8 weeks of treatment, supine norepinephrine levels are greater than about 500 pg/mL. Supine norepinephrine levels were determined using standard procedures (see, e.g., Goldstein et al., Annals of Neurology, 1989:26(4) 558-563; and Palma et al., Neurology, 2018:91(16) e1539-e1544).

T1 sequence (Q63380 1-617): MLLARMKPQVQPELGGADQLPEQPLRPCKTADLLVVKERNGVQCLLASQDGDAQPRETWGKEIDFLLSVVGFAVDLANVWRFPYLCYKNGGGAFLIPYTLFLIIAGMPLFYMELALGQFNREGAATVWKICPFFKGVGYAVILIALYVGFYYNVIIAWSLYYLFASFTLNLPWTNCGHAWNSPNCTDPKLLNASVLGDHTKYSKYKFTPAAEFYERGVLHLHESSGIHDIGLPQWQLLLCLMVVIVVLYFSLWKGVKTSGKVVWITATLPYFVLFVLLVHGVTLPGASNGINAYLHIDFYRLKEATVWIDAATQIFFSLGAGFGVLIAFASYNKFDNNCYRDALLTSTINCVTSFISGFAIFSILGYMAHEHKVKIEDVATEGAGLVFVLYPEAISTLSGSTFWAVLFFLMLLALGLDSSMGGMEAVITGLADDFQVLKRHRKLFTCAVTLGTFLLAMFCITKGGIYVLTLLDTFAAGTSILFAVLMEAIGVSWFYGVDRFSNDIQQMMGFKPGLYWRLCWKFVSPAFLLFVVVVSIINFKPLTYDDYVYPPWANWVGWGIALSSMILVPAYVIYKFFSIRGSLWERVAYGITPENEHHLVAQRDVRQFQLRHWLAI

As for `Fc1cc(F)c(OCc2ccccc2C2CCNCC2)c(F)c1` [Ampreloxetine, 4-[2-(2,4,6-trifluorophenoxymethyl)phenyl]piperidine], the EC50 on NET (projected from rat EC50 accounting for species differences in plasma protein binding) was 17.1 nM. At NET (rat spinal cord, oral dose), the “EC50, plasma concentration associated with 50% NET occupancy” value came out at 0.0117 µg/mL. The “Emax, maximal NET occupancy in spinal cord” value at NET (rat, single oral dose, effect compartment PK/PD model) was found to be 92.0 % occupancy. Moreover, the “keo, first-order equilibration rate constant, NET” value at NET (rat, central PK compartment to effect compartment) was determined as 1.78 h⁻¹. Further, the “NE at End of Ex. 6/Start of Ex. 7” value is 439 ± 250 pg/mL with norepinephrine (NE) (MSA, Example 6 ampreloxetine 10 mg QD group, start of Ex. 6: 280 ± 138); 357 ± 204 pg/mL with norepinephrine (NE) (PAF, Example 6 ampreloxetine 10 mg QD group, start of Ex. 6: 232 ± 110); 407 ± 154 pg/mL in the assay on norepinephrine (NE) (PD, Example 6 ampreloxetine 10 mg QD group, start of Ex. 6: 340 ± 237). For the same compound, the “NE on Day 29 of Ex. 7 Open Label” value was 539 ± 361 pg/mL with norepinephrine (NE) (MSA, Example 6 ampreloxetine 10 mg QD group, about 8 weeks); 557 ± 298 pg/mL in the assay on norepinephrine (NE) (MSA, Example 6 placebo group, received ampreloxetine in open-label part, start of Ex. 7: 291 ± 173); 455 ± 238 pg/mL in the assay with norepinephrine (NE) (PAF, Example 6 ampreloxetine 10 mg QD group, about 8 weeks); 267 ± 87 pg/mL in the assay with norepinephrine (NE) (PAF, Example 6 placebo group, received ampreloxetine in open-label part, start of Ex. 7: 156 ± 82); 552 ± 270 pg/mL in the assay on norepinephrine (NE) (PD, Example 6 ampreloxetine 10 mg QD group, about 8 weeks); 443 ± 157 pg/mL in the assay on norepinephrine (NE) (PD, Example 6 placebo group, received ampreloxetine in open-label part, start of Ex. 7: 340 ± 266). For the same compound, in the assay on norepinephrine (NE) (subjects with MSA, after about 8 weeks of treatment, before treatment less than about 350), the Supine norepinephrine levels result is given as “greater than 500 pg/mL”.
